Measured values as given in patent US20220289727A1, “ENZYME INHIBITORS” (KALVISTA PHARMACEUTICALS LIMITED, priority 2019, published 2022).
pIC50: −log10 of the molar value.

Molecular target: T1, Human Factor XIIa (Homo sapiens, UniProt P00748)
T1 construct: Human Factor XIIa (Enzyme Research Laboratories) was incubated; purchased Enzyme Research Laboratories
T1 sequence (P00748 373-615 limits assumed): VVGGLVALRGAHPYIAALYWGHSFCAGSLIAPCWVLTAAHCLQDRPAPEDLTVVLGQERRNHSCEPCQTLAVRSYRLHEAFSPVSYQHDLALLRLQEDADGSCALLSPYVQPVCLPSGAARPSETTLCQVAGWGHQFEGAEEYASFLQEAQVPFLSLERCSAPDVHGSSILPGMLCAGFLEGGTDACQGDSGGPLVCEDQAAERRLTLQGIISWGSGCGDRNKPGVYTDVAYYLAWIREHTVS
T1 sequence (P00748 20-372 partner limits assumed): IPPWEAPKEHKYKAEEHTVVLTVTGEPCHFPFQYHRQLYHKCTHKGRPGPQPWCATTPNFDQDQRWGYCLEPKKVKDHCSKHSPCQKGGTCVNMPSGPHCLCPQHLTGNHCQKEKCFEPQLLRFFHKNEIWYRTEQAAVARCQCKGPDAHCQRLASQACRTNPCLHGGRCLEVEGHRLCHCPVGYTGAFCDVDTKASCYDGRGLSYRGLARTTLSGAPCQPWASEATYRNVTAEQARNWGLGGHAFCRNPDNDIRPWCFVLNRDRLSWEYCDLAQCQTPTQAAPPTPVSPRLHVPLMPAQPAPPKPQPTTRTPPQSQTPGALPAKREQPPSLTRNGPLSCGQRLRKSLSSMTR
Test: Determination of FXIIa inhibitory activity in vitro (fluorogenic substrate H-DPro-Phe-Arg-AFC)
Type: biochemical
Settings: 25° C., residual enzyme activity (initial rate)

pIC50	Structure (SMILES)
5.00 to 5.52	CC(C)N1CCN(CCCNCc2sc(C(=O)NCc3ccc4c(N)nccc4c3)cc2Cl)CC1 [Example 2.34]
5.00 to 5.52	CN(C)CCOc1ccc(CNCc2sc(C(=O)NCc3ccc4c(N)nccc4c3)cc2Cl)cc1 [Example 2.35]
5.00 to 5.52	CN1CCN(CCCNCc2sc(C(=O)NCc3ccc4c(N)nccc4c3)cc2Cl)CC1 [Example 2.37]
4.40 to 5.00	Nc1nccc2cc(CNC(=O)c3cc(Cl)c(CNCCN4CCCC4=O)s3)ccc12 [Example 2.38]
4.40 to 5.00	CN1CCN(c2ccccc2CNCc2sc(C(=O)NCc3ccc4c(N)nccc4c3)cc2Cl)CC1 [Example 2.39]
5.00 to 5.52	Nc1nccc2cc(CNC(=O)c3cc(Cl)c(CNCC4CCN(Cc5ccccc5)CC4)s3)ccc12 [Example 2.40]
4.40 to 5.00	Nc1nccc2cc(CNC(=O)c3cc(Cl)c(CNCc4ccc(N5CCCCC5=O)cc4)s3)ccc12 [Example 2.41]
4.40 to 5.00	Nc1nccc2cc(CNC(=O)c3cc(Cl)c(CNCc4cccc(N5CCCC5=O)c4)s3)ccc12 [Example 2.42]
4.40 to 5.00	Nc1nccc2cc(CNC(=O)c3cc(Cl)c(CNCC(=O)NC4CCCC4)s3)ccc12 [Example 2.43]
5.00 to 5.52	CN(Cc1sc(C(=O)NCc2ccc3c(N)nccc3c2)cc1Cl)CC1CCN(c2ccncc2)CC1 [Example 2.44]
5.00 to 5.52	CN(C)CCCOc1cccc(CN(C)Cc2sc(C(=O)NCc3ccc4c(N)nccc4c3)cc2Cl)c1 [Example 2.45]
4.40 to 5.00	CN(Cc1sc(C(=O)NCc2ccc3c(N)nccc3c2)cc1Cl)C1CCOCC1 [Example 2.46]
4.40 to 5.00	CN1CCC(N(C)Cc2sc(C(=O)NCc3ccc4c(N)nccc4c3)cc2Cl)CC1 [Example 2.47]
4.40 to 5.00	COc1ccc(NCc2sc(C(=O)NCc3ccc4c(N)nccc4c3)cc2Cl)cc1 [Example 2.48]
5.00 to 5.52	CS(=O)(=O)c1ccc(NCc2sc(C(=O)NCc3ccc4c(N)nccc4c3)cc2Cl)cc1 [Example 2.49]
4.40 to 5.00	N#Cc1ccc(CNCc2sc(C(=O)NCc3ccc4c(N)nccc4c3)cc2Cl)cc1 [Example 2.50]
4.40 to 5.00	CC(=O)NCCCNCc1sc(C(=O)NCc2ccc3c(N)nccc3c2)cc1Cl [Example 2.51]
5.00 to 5.52	CN(C)CCCOc1cccc(CNCc2sc(C(=O)NCc3ccc4c(N)nccc4c3)cc2Cl)c1 [Example 2.52]
5.00 to 5.52	CN1C(C)(C)CC(NCc2sc(C(=O)NCc3ccc4c(N)nccc4c3)cc2Cl)CC1(C)C [Example 2.53]
5.00 to 5.52	Nc1nccc2cc(CNC(=O)c3cc(Cl)c(CNCCn4cncn4)s3)ccc12 [Example 2.54]
4.40 to 5.00	CC(=O)Nc1cccc(NCc2sc(C(=O)NCc3ccc4c(N)nccc4c3)cc2Cl)c1 [Example 2.55]
5.00 to 5.52	CC(C)N(CCNCc1sc(C(=O)NCc2ccc3c(N)nccc3c2)cc1Cl)C(C)C [Example 2.56]
5.00 to 5.52	Nc1nccc2cc(CNC(=O)c3cc(Cl)c(CNCc4ccc(CN5CCCC5=O)cc4)s3)ccc12 [Example 2.57]
4.40 to 5.00	Nc1nccc2cc(CNC(=O)c3cc(Cl)c(CN4CCN(Cc5cccnc5)CC4)s3)ccc12 [Example 5.01]

pIC50	Structure (SMILES)
5.00 to 5.52	CN1CCCN(Cc2sc(C(=O)NCc3ccc4c(N)nccc4c3)cc2Cl)CC1 [Example 5.02]
4.40 to 5.00	Nc1nccc2cc(CNC(=O)c3cc(Cl)c(CN4CCOCC4)s3)ccc12 [Example 5.03]
4.40 to 5.00	CN1CCN(Cc2sc(C(=O)NCc3ccc4c(N)nccc4c3)cc2Cl)CC1 [Example 5.04]
4.40 to 5.00	CC(=O)N1CCN(Cc2sc(C(=O)NCc3ccc4c(N)nccc4c3)cc2Cl)CC1 [Example 5.05]
4.40 to 5.00	CC(C)N1CCN(Cc2sc(C(=O)NCc3ccc4c(N)nccc4c3)cc2Cl)CC1 [Example 5.06]
4.40 to 5.00	CS(=O)(=O)N1CCN(Cc2sc(C(=O)NCc3ccc4c(N)nccc4c3)cc2Cl)CC1 [Example 5.07]
4.40 to 5.00	Nc1nccc2cc(CNC(=O)c3cc(Cl)c(CN4CCC(F)(F)C4)s3)ccc12 [Example 5.08]
4.40 to 5.00	Nc1nccc2cc(CNC(=O)c3cc(Cl)c(CN4Cc5ccccc5C4)s3)ccc12 [Example 5.09]
5.00 to 5.52	Nc1nccc2cc(CNC(=O)c3cc(Cl)c(CN4CCc5ncccc5C4)s3)ccc12 [Example 5.10]
4.40 to 5.00	Nc1nccc2cc(CNC(=O)c3cc(Cl)c(CN4CC(O)C4)s3)ccc12 [Example 5.11]
4.40 to 5.00	Nc1nccc2cc(CNC(=O)c3cc(Cl)c(CN4CCC(CCN5CCCC5=O)CC4)s3)ccc12 [Example 5.13]
4.40 to 5.00	Nc1nccc2cc(CNC(=O)c3cc(Cl)c(CN4CCC5(CC4)OCCO5)s3)ccc12 [Example 5.14]
4.40 to 5.00	Nc1nccc2cc(CNC(=O)c3cc(Cl)c(CN4CCN(c5cnccn5)CC4)s3)ccc12 [Example 5.15]
4.40 to 5.00	CS(=O)(=O)c1ccc(OCc2sc(C(=O)NCc3ccc4c(N)nccc4c3)cc2Cl)cc1 [Example 7.01]
4.40 to 5.00	Cn1cnc2cc(OCc3sc(C(=O)NCc4ccc5c(N)nccc5c4)cc3Cl)ccc21 [Example 7.02]
5.52 to 6.00	Nc1nccc2cc(CNC(=O)c3cc(Cl)c(COc4ccc(N5CCNCC5)cc4)s3)ccc12 [Example 7.03, N-((1-Aminoisoquinolin-6-yl)methyl)-4-chloro-5-((4-(piperazin-1-yl)phenoxy)methyl)thiophene-2-carboxamide]
4.40 to 5.00	CC(C)NC(=O)N(C)c1ccc(OCc2sc(C(=O)NCc3ccc4c(N)nccc4c3)cc2Cl)cc1 [Example 7.04]
5.52 to 6.00	Nc1nccc2cc(CNC(=O)c3cc(Cl)c(COc4cccc(N5CCNCC5)c4)s3)ccc12 [Example 7.05]
5.00 to 5.52	Nc1nccc2cc(CNC(=O)c3cc(Cl)c(COCCN4CCOCC4)s3)ccc12 [Example 7.06]
5.00 to 5.52	Nc1nccc2cc(CNC(=O)c3cc(Cl)c(COCCN4CCCCC4)s3)ccc12 [Example 7.07]
5.52 to 6.00	CN1CCC(COCc2sc(C(=O)NCc3ccc4c(N)nccc4c3)cc2Cl)CC1 [Example 7.08]
5.00 to 5.52	Nc1nccc2cc(CNC(=O)c3cc(Cl)c(COCCN4CCS(=O)(=O)CC4)s3)ccc12 [Example 7.09]
4.40 to 5.00	Nc1nccc2cc(CNC(=O)c3cc(Cl)c(COCc4ccccn4)s3)ccc12 [Example 7.10]
4.40 to 5.00	CS(=O)(=O)c1cccc(COCc2sc(C(=O)NCc3ccc4c(N)nccc4c3)cc2Cl)c1 [Example 7.11]

pIC50	Structure (SMILES)
4.40 to 5.00	Nc1nccc2cc(CNC(=O)c3cc(Cl)c(COCCC4CCOCC4)s3)ccc12 [Example 7.12]
5.00 to 5.52	Nc1nccc2cc(CNC(=O)c3cc(Cl)c(COCC4CCOCC4)s3)ccc12 [Example 7.13]
5.00 to 5.52	Nc1nccc2cc(CNC(=O)c3cc(Cl)c(COCCN4CCCC4)s3)ccc12 [Example 7.14]
5.00 to 5.52	CN(C)CCOCc1sc(C(=O)NCc2ccc3c(N)nccc3c2)cc1Cl [Example 7.15]
5.00 to 5.52	Nc1nccc2cc(CNC(=O)c3cc(Cl)c(COCCn4ccnc4)s3)ccc12 [Example 7.16]
4.40 to 5.00	CN(CCOCc1sc(C(=O)NCc2ccc3c(N)nccc3c2)cc1Cl)Cc1ccccc1 [Example 7.17]
4.40 to 5.00	Nc1nccc2cc(CNC(=O)c3cc(Cl)c(COCC4CCN(Cc5ccccc5)CC4)s3)ccc12 [Example 7.18]
5.00 to 5.52	Nc1nccc2cc(CNC(=O)c3cc(Cl)c(COCc4cccnc4)s3)ccc12 [Example 7.19]
5.00 to 5.52	Nc1nccc2cc(CNC(=O)c3cc(Cl)c(COCc4ccncc4)s3)ccc12 [Example 7.20]
5.00 to 5.52	Nc1nccc2cc(CNC(=O)c3cc(Cl)c(COCc4cncnc4)s3)ccc12 [Example 7.21]
5.52 to 6.00	CCN(CC)CCCOCc1sc(C(=O)NCc2ccc3c(N)nccc3c2)cc1Cl [Example 7.22]
5.52 to 6.00	Nc1nccc2cc(CNC(=O)c3cc(Cl)c(COCCCN4CCCCC4)s3)ccc12 [Example 7.23]
4.40 to 5.00	Nc1nccc2cc(CNC(=O)c3cc(Cl)c(COCCCc4ccncc4)s3)ccc12 [Example 7.24]
5.00 to 5.52	Nc1nccc2cc(CNC(=O)c3cc(Cl)c(COCCCN4CCOCC4)s3)ccc12 [Example 7.25]
5.00 to 5.52	Cn1cc(CCCOCc2sc(C(=O)NCc3ccc4c(N)nccc4c3)cc2Cl)cn1 [Example 7.27]
4.40 to 5.00	Nc1nccc2cc(CNC(=O)c3cc(Cl)c(COCCCn4cccn4)s3)ccc12 [Example 7.28]
4.40 to 5.00	Nc1nccc2cc(CNC(=O)c3cc(Cl)c(COCCCc4ccccn4)s3)ccc12 [Example 7.29]
4.40 to 5.00	CN(C)c1ccc(COCc2sc(C(=O)NCc3ccc4c(N)nccc4c3)cc2Cl)cc1 [Example 7.30]
5.52 to 6.00	CN(C)CCCOCc1sc(C(=O)NCc2ccc3c(N)nccc3c2)cc1Cl [Example 7.31]
4.40 to 5.00	Nc1nccc2cc(CNC(=O)c3cc(Cl)cs3)ccc12 [Example 25.01]
5.00 to 5.52	Cc1sc(C(=O)NCc2ccc3c(N)nccc3c2)cc1Br [Example 25.02]
4.40 to 5.00	Nc1nccc2cc(CNC(=O)c3ccc(Cl)s3)ccc12 [Example 25.03]
5.00 to 5.52	Cc1sc(C(=O)NCc2ccc3c(N)nccc3c2)cc1Cl [Example 25.04]

Structure (SMILES)	pIC50
CN(C)CCCCOCc1sc(C(=O)NCc2ccc3c(N)nccc3c2)cc1Cl [Example 7.26, N-((1-Aminoisoquinolin-6-yl)methyl)-4-chloro-5-((4-(dimethylamino)butoxy)methyl)thiophene-2-carboxamide]	5.52 to 6.00
